Assay results published in the NIST ThermoML archive (doi:10.1021/je200350a).
Numbers after ± are expanded uncertainties.

Assay: xn = mol fraction of the nth substance listed
Settings: 101 kPa, Liquid; for viscosity: Capillary tube (Ostwald / Ubbelohde) method

CCCCBr [1-bromobutane] + CC1CCCCC1
Settings	mass density, 293.15 K [kg/m3]	mass density, 298.15 K [kg/m3]	mass density, 303.15 K [kg/m3]	mass density, 308.15 K [kg/m3]	viscosity, 293.15 K [mPa·s]	viscosity, 298.15 K [mPa·s]	viscosity, 303.15 K [mPa·s]	viscosity, 308.15 K [mPa·s]
x2 = 0.1014	1218.7 ± 1.3	1212.2 ± 1.3	1206.3 ± 1.3	1198.2 ± 1.2	0.6398 ± 0.0063	0.6033 ± 0.006	0.5754 ± 0.0058	0.5463 ± 0.0055
x2 = 0.1535	1187.3 ± 1.2	1180.4 ± 1.2	1174.2 ± 1.2	1167.5 ± 1.2	0.6402 ± 0.0063	0.6034 ± 0.006	0.5745 ± 0.0058	0.5458 ± 0.0055
x2 = 0.2607	1129.8 ± 1	1123 ± 1	1118.5 ± 1	1111 ± 1	0.6441 ± 0.0064	0.6066 ± 0.006	0.5762 ± 0.0058	0.5462 ± 0.0055
x2 = 0.372	1071 ± 0.9	1064.8 ± 0.9	1059.4 ± 0.9	1053.2 ± 0.9	0.6465 ± 0.0064	0.6104 ± 0.0061	0.578 ± 0.0058	0.5479 ± 0.0055
x2 = 0.4293	1041 ± 0.8	1035.5 ± 0.8	1029.9 ± 0.8	1024.4 ± 0.8	0.6517 ± 0.0064	0.6152 ± 0.0061	0.5826 ± 0.0058	0.5516 ± 0.0056
x2 = 0.5473	978.8 ± 0.8	973.2 ± 0.8	967.8 ± 0.8	962.5 ± 0.8	0.6581 ± 0.0065	0.62 ± 0.0062	0.5854 ± 0.0059	0.554 ± 0.0056
x2 = 0.608	946.5 ± 0.8	941.2 ± 0.8	935.8 ± 0.8	930.7 ± 0.9	0.6622 ± 0.0065	0.6235 ± 0.0062	0.5882 ± 0.0059	0.5561 ± 0.0056
x2 = 0.7979	858.3 ± 1	853.5 ± 1	849 ± 1	843.8 ± 1	0.6877 ± 0.0067	0.6457 ± 0.0064	0.6074 ± 0.0061	0.5721 ± 0.0058
x2 = 0.8639	830 ± 1	825.8 ± 1.1	821.8 ± 1.1	816.5 ± 1.1	0.6993 ± 0.0068	0.6558 ± 0.0065	0.6166 ± 0.0061	0.5806 ± 0.0058

O=[N+]([O-])c1ccccc1 [nitrobenzene] + CC1CCCCC1
Settings	mass density, 293.15 K [kg/m3]	mass density, 298.15 K [kg/m3]	mass density, 303.15 K [kg/m3]	mass density, 308.15 K [kg/m3]	viscosity, 293.15 K [mPa·s]	viscosity, 298.15 K [mPa·s]	viscosity, 303.15 K [mPa·s]	viscosity, 308.15 K [mPa·s]
x1 = 0.1422	820.2 ± 1.1	816.2 ± 1.1	812.4 ± 1.1	808.2 ± 1.1	0.785 ± 0.0076	0.735 ± 0.0071	0.6901 ± 0.0068	0.649 ± 0.0064
x1 = 0.2103	845.2 ± 1	840.8 ± 1	837.4 ± 1	832.3 ± 1	0.8282 ± 0.0079	0.7723 ± 0.0075	0.7233 ± 0.0071	0.6777 ± 0.0067
x1 = 0.3412	900.9 ± 0.9	897.5 ± 0.9	894.2 ± 0.9	891 ± 0.9	0.9436 ± 0.0089	0.8765 ± 0.0084	0.8177 ± 0.0079	0.7653 ± 0.0074
x1 = 0.404	919.6 ± 0.9	915.6 ± 0.9	912.8 ± 0.9	909 ± 0.9	0.9971 ± 0.0094	0.9244 ± 0.0088	0.8618 ± 0.0082	0.8054 ± 0.0078
x1 = 0.5249	973.2 ± 0.8	970.2 ± 0.8	965 ± 0.8	962.6 ± 0.8	1.125 ± 0.01	1.042 ± 0.0098	0.9677 ± 0.0091	0.9044 ± 0.0086
x1 = 0.6397	1027 ± 0.8	1022.7 ± 0.8	1019.6 ± 0.8	1016 ± 0.8	1.266 ± 0.012	1.172 ± 0.011	1.089 ± 0.01	1.015 ± 0.0096
x1 = 0.7489	1075.7 ± 0.9	1071.6 ± 0.9	1067.8 ± 0.9	1062.9 ± 0.9	1.416 ± 0.013	1.312 ± 0.012	1.218 ± 0.011	1.136 ± 0.011
x1 = 0.853	1123.6 ± 1	1119.2 ± 1	1114.5 ± 1	1111.5 ± 1	1.613 ± 0.015	1.484 ± 0.013	1.371 ± 0.013	1.272 ± 0.012
x1 = 0.9031	1150.8 ± 1.1	1146.3 ± 1.1	1142 ± 1.1	1137.5 ± 1.1	1.718 ± 0.015	1.58 ± 0.014	1.46 ± 0.013	1.354 ± 0.012

CCCCBr [1-bromobutane] + O=[N+]([O-])c1ccccc1
Settings	mass density, 293.15 K [kg/m3]	mass density, 298.15 K [kg/m3]	mass density, 303.15 K [kg/m3]	mass density, 308.15 K [kg/m3]	viscosity, 293.15 K [mPa·s]	viscosity, 298.15 K [mPa·s]	viscosity, 303.15 K [mPa·s]	viscosity, 308.15 K [mPa·s]
x2 = 0.123	1270.9 ± 1.4	1263.5 ± 1.4	1256.5 ± 1.4	1249 ± 1.4	0.7256 ± 0.0071	0.6851 ± 0.0067	0.6486 ± 0.0064	0.615 ± 0.0061
x2 = 0.2445	1262.8 ± 1.4	1256.6 ± 1.4	1249.8 ± 1.4	1242.4 ± 1.3	0.8243 ± 0.0079	0.7761 ± 0.0075	0.7321 ± 0.0071	0.692 ± 0.0068
x2 = 0.3645	1253.7 ± 1.4	1247.1 ± 1.4	1240.8 ± 1.3	1234.3 ± 1.3	0.9397 ± 0.0089	0.8811 ± 0.0084	0.828 ± 0.0079	0.7802 ± 0.0075
x2 = 0.424	1249.7 ± 1.4	1244 ± 1.3	1238 ± 1.3	1230.7 ± 1.3	0.9936 ± 0.0094	0.9308 ± 0.0088	0.8743 ± 0.0083	0.8225 ± 0.0079
x2 = 0.542	1240.8 ± 1.3	1234.4 ± 1.3	1228.2 ± 1.3	1222.2 ± 1.3	1.131 ± 0.01	1.055 ± 0.0099	0.986 ± 0.0093	0.925 ± 0.0088
x2 = 0.6585	1229.4 ± 1.3	1223.8 ± 1.3	1218.5 ± 1.3	1212.4 ± 1.3	1.281 ± 0.012	1.19 ± 0.011	1.109 ± 0.01	1.037 ± 0.0097
x2 = 0.7737	1220.6 ± 1.3	1214.7 ± 1.3	1209.9 ± 1.2	1205.1 ± 1.2	1.477 ± 0.013	1.364 ± 0.013	1.266 ± 0.012	1.18 ± 0.011
x2 = 0.8875	1211.5 ± 1.3	1206.6 ± 1.2	1201.6 ± 1.2	1196 ± 1.2	1.703 ± 0.015	1.566 ± 0.014	1.447 ± 0.013	1.34 ± 0.012
x2 = 0.9439	1206.7 ± 1.2	1201.6 ± 1.2	1196.5 ± 1.2	1191.2 ± 1.2	1.835 ± 0.017	1.682 ± 0.015	1.548 ± 0.014	1.43 ± 0.013
